Results reported in patent US20090264415A2 (priority 2004, published 2009).
Read-outs that look alike come from different tables or passages of the source.

Tests used:
[1] = test system: peripheral blood mononuclear cells (PBMC) stimulated with allogeneic PBMC or EBV-transformed human B cells (RPMI1788); experiment: Mixed lymphocyte reaction (MLR) assay; format: cell-based; settings: 50% suppression of the MLR, [3H]-thymidine incorporation, read-out: MLR
Summary of the method: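 Compounds, held as 10 mM DMSO stocks and diluted in culture medium, were added to PBMC stimulated by 30 Gy-irradiated allogeneic PBMC or RPMI1788 cells. Proliferation was read as [3H]-thymidine uptake (1 μCi, final 16 h) after 5 days at 37° C. Inhibition was derived from cpm.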

[2] = test system: phosphodiesterase-4 (PDE-4) extract from U937 cells; experiment: Phosphodiesterase-4 inhibiting activity (isotopic two-step method); format: biochemical
[3] = test system: production of human TNF-α by PBMC in response to LPS; experiment: TNF-α assay (LPS-stimulated PBMC, sandwich ELISA); format: cell-based; settings: LPS 1 μg/ml, 72 hours, read-out: TNF α
Procedure: Peripheral blood mononuclear cells (herein referred as PBMC), in response to stimulation by lipopolysaccharide (hereinafter LPS), a gram-negative bacterial endotoxin, produce various […], in particular human TNF-α. Inhibition of the activation of PBMC can therefore be measured by the level of suppression of the production of TNF-α by PBMC in response to stimulation by LPS. Inhibition measurement was performed as follows: PBMC were isolated from heparinized peripheral blood by density gradient centrifugation over Lymphoprep (commercially available from Nycomed, Norway). LPS was then added to the PMBC suspension in complete medium (10^6 cells/ml) at a final concentration of 1 μg/ml. The pteridine derivative to be tested was added at different concentrations (0.1 μM, 1 μM and 10 μM) and the cells were incubated at 37° C. for 72 hours in 5% CO2. The supernatants were collected, then TNF-α concentrations were measured with respectively an anti-TNF-α antibody in a sandwich ELISA (Duo Set ELISA human TNFα, commercially available from R&D Systems, United Kingdom). The colorimetric reading of the ELISA was measured by a Multiskan RC plate reader (commercially available from ThermoLabsystems, Finland) at 450 nm (reference wavelength: 690 nm). Data analysis was performed with Ascent software 2.6. (also from ThermoLabsystems, Finland): a standard curve (recombinant human TNFα) was drawn and the amount (pg/ml) of each sample on the standard curve was determined. The % suppression of human TNFα production by the pyrido[3,2-d]pyrimidine derivatives of the invention was calculated using the formula: [formula]

SMILES	IC50 [1]	IC50 ([1]; Homo sapiens, RPMI-1788)	IC50 ([3]; Homo sapiens, PBMC)	also measured
COc1ccc(-c2ccc3nc(N)nc(N4CCN(C(=O)c5ccco5)CC4)c3n2)cc1OC [Example 51, 2-amino-4-[1-(2-furoyl)-piperazin-1-yl]-6-(3,4-dimethoxyphenyl)-pyrido[3,2-d]pyrimidine]	0.03 µM			PDE-4 (% inhibition) ([2]; @ 0.03 μM): 63% @ 0.03 μM
COc1ccc(-c2ccc3nc(N)nc(N4CCN(C(=O)COc5ccc(Cl)cc5)CC4)c3n2)cc1OC [Example 59, 2-amino-4-[(N-4-chloro-phenoxy-acetyl)-piperazin-1-yl]-6-(3,4-dimethoxyphenyl)-pyrido[3,2-d]pyrimidine]		0.016 µM		IC50 ([2]; 1.01 μM [3H]cAMP+cAMP): 0.034 µM
COc1ccc(-c2ccc3ncnc(N4CCN(C(=O)Nc5cccc(Cl)c5)CC4)c3n2)cc1Cl [Example 79, 4-[(N-3-chlorophenylcarbamoyl)-piperazin-1-yl]-6-(3-chloro-4-methoxyphenyl)-pyrido[3,2-d]pyrimidine]	0.3 µM			PDE-4 (% inhibition) ([2]; @ 10 μM): 67% @ 10 μM
O=C(Nc1cccc(Cl)c1)N1CCN(c2ncnc3ccc(-c4ccc5c(c4)OCCO5)nc23)CC1 [Example 80, 4-[(N-3-chlorophenylcarbamoyl)-piperazin-1-yl]-6-(1,4-benzodioxan-6-yl)-pyrido[3,2-d]pyrimidine]	0.3 µM			PDE-4 (% inhibition) ([2]; @ 10 μM): 17% @ 10 μM
Cc1ccc(-c2ccc3ncnc(N4CCN(C(=O)Nc5cccc(Cl)c5)CC4)c3n2)cc1C [Example 81]	0.5 µM			PDE-4 (% inhibition) ([2]; @ 10 μM): 12% @ 10 μM
O=C(Nc1cccc(Cl)c1)N1CCN(c2ncnc3ccc(-c4ccc5c(c4)OCO5)nc23)CC1 [Example 82, 4-[(N-3-chlorophenylcarbamoyl)-piperazin-1-yl]-6-(3,4-methylenedioxy)phenyl-pyrido[3,2-d]pyrimidine]	0.3 µM			PDE-4 (% inhibition) ([2]; @ 10 μM): 31% @ 10 μM
CCOc1ccc(-c2ccc3ncnc(N4CCN(C(=O)Nc5cccc(Cl)c5)CC4)c3n2)cc1Cl [Example 83]	0.5 µM			PDE-4 (% inhibition) ([2]; @ 10 μM): 49% @ 10 μM
COc1ccc(-c2ccc3nc(N)nc(N4CC[C@H](NC(=O)COc5ccc(Cl)cc5)C4)c3n2)cc1OC [Example 220]		4.3 µM	1.8 µM	
COc1ccc(-c2ccc3nc(N)nc(SC)c3n2)cc1OC [Example 223, 2-amino-4-thiomethyl-6-(3,4-dimethoxyphenyl)-pyrido[3,2-d]pyrimidine]	0.9 µM			IC50 [3]: 0.8 µM
Nc1nc(N2CCOCC2)c2nc(-c3ccco3)ccc2n1 [Example 232, 2-amino-4-morpholino-6-(2-furan)-pyrido[3,2-d]pyrimidine]	5.3 µM			IC50 [3]: 5.3 µM
Nc1nc(N2CCOCC2)c2nc(-c3ccsc3)ccc2n1 [Example 233, 2-amino-4-morpholino-6-(3-thiophene)-pyrido[3,2-d]pyrimidine]	4.4 µM			IC50 [3]: 3.7 µM
Nc1nc(N2CCOCC2)c2nc(-c3ccncc3)ccc2n1 [Example 234, 2-amino-4-morpholino-6-(4-pyridinyl)-pyrido[3,2-d]pyrimidine]		0.7 µM	0.5 µM	
Cc1ccc(-c2ccc3nc(N)nc(N4CCOCC4)c3n2)s1 [Example 235, 2-amino-4-morpholino-6-(5-methyl-2-thienyl)-pyrido[3,2-d]pyrimidine]		3.4 µM	1.8 µM	
Nc1nc(N2CCOCC2)c2nc(-c3ccc4[nH]ccc4c3)ccc2n1 [Example 237, 2-amino-4-morpholino-6-(5-indolyl)-pyrido[3,2-d]pyrimidine]		0.8 µM	2.6 µM	
Nc1nc(N2CCOCC2)c2nc(-c3cccs3)ccc2n1 [Example 238, 2-amino-4-morpholino-6-(2-thienyl)-pyrido[3,2-d]pyrimidine]		0.8 µM	2.8 µM	
Cc1csc(-c2ccc3nc(N)nc(N4CCOCC4)c3n2)c1 [Example 239, 2-amino-4-morpholino-6-(4-methyl-2-thienyl)-pyrido[3,2-d]pyrimidine]		4.6 µM	4.9 µM	
Nc1nc(N2CCOCC2)c2nc(-c3cccnc3)ccc2n1 [Example 240, 2-amino-4-morpholino-6-(3-pyridinyl)-pyrido[3,2-d]pyrimidine]		1.3 µM	0.7 µM	

SMILES	IC50 [1]	IC50 ([1]; Homo sapiens, RPMI-1788)	IC50 ([3]; Homo sapiens, PBMC)	also measured
Nc1nc(N2CCOCC2)c2nc(-c3ccc(Cl)s3)ccc2n1 [Example 241, 2-amino-4-morpholino-6-(5-chloro-2-thienyl)-pyrido[3,2-d]pyrimidine]		2.2 µM	5.4 µM	
Nc1nc(N2CCOCC2)c2nc(-c3ccc(F)c(F)c3)ccc2n1 [Example 243, 2-amino-4-morpholino-6-(3,4-difluorophenyl)-pyrido[3,2-d]pyrimidine]		2.3 µM	6 µM	
Cc1cc(-c2ccc3nc(N)nc(N4CCOCC4)c3n2)ccc1F [Example 244, 2-amino-4-morpholino-6-(4-fluoro-3-methylphenyl)-pyrido[3,2-d]pyrimidine]		3.8 µM	7.2 µM	
Cc1noc(C)c1-c1ccc2nc(N)nc(N3CCOCC3)c2n1 [Example 246, 2-amino-4-morpholino-6-[4-(3,5-dimethylisoxazolyl)]-pyrido[3,2-d]pyrimidine]	5.5 µM			IC50 [3]: 1.6 µM
COc1ccc(-c2ccc3nc(N)nc(N4CCCN(C(=O)Nc5cccc(C)c5)CC4)c3n2)cc1OC [Example 250, 2-amino-4-[(N-3-methylphenylcarbamoyl)-homopiperazin-1-yl]-6-(3,4-dimethoxyphenyl)-pyrido[3,2-d]pyrimidine]		0.0085 µM	0.6 µM	
COc1ccc(-c2ccc3nc(N)nc(NC4CCN(C(=O)OC(C)(C)C)CC4)c3n2)cc1OC [Example 255, 2-amino-4-[(1-Boc-piperidin-4-yl)amino]-6-(3,4-dimethoxyphenyl)-pyrido[3,2-d]pyrimidine]		0.06 µM	0.04 µM	
COc1ccc(-c2ccc3nc(N)nc(NC4CCCN(C(=O)OC(C)(C)C)C4)c3n2)cc1OC (stereo not drawn) [Example 257, 2-amino-4-[(1-Boc-piperidin-3-yl)amino]-6-(3,4-dimethoxyphenyl)-pyrido[3,2-d]pyrimidine]		0.3 µM	0.6 µM	
COc1ccc(-c2ccc3nc(N)nc(NC4CCCN(C(=O)OCc5ccccc5)C4)c3n2)cc1OC (stereo not drawn) [Example 258, 2-amino-4-[(1-Cbz-piperidin-3-yl)amino]-6-(3,4-dimethoxyphenyl)-pyrido[3,2-d]pyrimidine]		0.9 µM	0.3 µM	
COc1ccc(-c2ccc3nc(N)nc(NCCCNC(=O)Nc4cccc(C)c4)c3n2)cc1OC [Example 262, 2-amino-4-[(3-methylphenylcarbamoyl)-3-aminopropane-amino-1-N-yl]-6-(3,4-dimethoxyphenyl)-pyrido[3,2-d]pyrimidine]		0.5 µM	6.9 µM	
COc1ccc(-c2ccc3nc(N)nc(NC4CCN(C(=O)Nc5cccc(C)c5)CC4)c3n2)cc1OC [Example 263]		0.07 µM	0.5 µM	
COc1ccc(-c2ccc3nc(N)nc(NC4CCCN(C(=O)Nc5cccc(C)c5)C4)c3n2)cc1OC (stereo not drawn) [Example 264, 2-amino-4-[(3-methylphenylcarbamoylpiperidin-3-yl)amino)-6-(3,4-dimethoxyphenyl]-pyrido[3,2-d]pyrimidine]		0.5 µM	1.8 µM	
COc1ccc(-c2ccc3nc(N)nc(NCCNC(=O)COc4ccc(Cl)cc4)c3n2)cc1OC [Example 265]		0.3 µM	3.9 µM	
COc1ccc(-c2ccc3nc(N)nc(NCCCNC(=O)COc4ccc(Cl)cc4)c3n2)cc1OC [Example 266, 2-amino-4-[3-N-(4-chlorophenoxy-acetyl)-3-amino-propane-amine-1-N-yl]-6-(3,4-dimethoxyphenyl)-pyrido[3,2-d]pyrimidine]		0.7 µM	0.9 µM	
COc1ccc(-c2ccc3nc(N)nc(N4CC[C@@H](NC(=O)COc5ccc(Cl)cc5)C4)c3n2)cc1OC [Example 267]		0.7 µM	2.5 µM	
COc1ccc(-c2ccc3nc(N)nc(N4CCCC(C(=O)NCC(C)C)C4)c3n2)cc1OC (stereo not drawn) [Example 268, 2-amino-4-[(3-carboxylic acid isobutylamide)-piperidin-1-yl]-6-(3,4-dimethoxyphenyl)-pyrido[3,2-d]pyrimidine]		0.5 µM	0.7 µM	
COc1ccc(-c2ccc3nc(N)nc(NCC(=O)N4CCN(Cc5ccccc5)CC4)c3n2)cc1OC [Example 271, 2-amino-4-[2-(4-benzylpiperazin-1-yl)-2-oxo-ethane-amino]-6-(3,4-dimethoxyphenyl)-pyrido[3,2-d]pyrimidine]		0.7 µM	0.5 µM	
